From patent US9695159B2, “Process for preparation of canagliflozin” (Glenmark Pharmaceuticals Limited, priority 2014, dated 2017)

Assay: Hygroscopic study: water content by KF and description after exposure to 25° C./60% RH and 25° C./90% RH
Format: physicochemical
Experimental: Method for Measuring the Water Content
About 10 g canagliflozin was exposed to 25° C. and 60% relative humidity and 25° C. and 90% relative humidity conditions. About 300 mg of sample was withdrawn each time at the timely intervals of 1 hr, 2 hrs, 4 hrs, 8 hrs, 12 hrs, 24 hrs and 48 hrs from the conditions and tested for description and water content by KF. The water content was calculated by the following formula: […]
Results of Hygroscopic Study for Canagliflozin Obtained as Per Example 16

In the case of Cc1ccc([C@@H]2O[C@H](CO)[C@@H](O)[C@H](O)[C@H]2O)cc1Cc1ccc(-c2ccc(F)cc2)s1 [amorphous canagliflozin, 1(S)-1,5-anhydro-1-[3[[5-(4-fluorophenyl)-2-thienyl]methyl]-4-methylphenyl]-D-glucitol], the “increase of moisture content” value (exposed for 48 hours to 25° C. and 60% relative humidity) is reported as no more than 0.4% and the “increase of moisture content” value (exposed for 48 hours to 25° C. and 90% relative humidity) is reported as no more than 0.4%.

For Cc1ccc([C@@H]2O[C@H](CO)[C@@H](O)[C@H](O)[C@H]2O)cc1Cc1ccc(-c2ccc(F)cc2)s1 [Canagliflozin, 1(S)-1,5-anhydro-1-[3[[5-(4-fluorophenyl)-2-thienyl]methyl]-4-methylphenyl]-D-glucitol], the Description (25° C./60% RH, 1 hr) was “Off white”, the “Moisture content by KF (%)” value (25° C./60% RH, 1 hr) was 2.22% and the Description (25° C./60% RH, 2 hrs) was “Off white”. The “Moisture content by KF (%)” value (25° C./60% RH, 2 hrs) was 2.29%, the Description (25° C./60% RH, 4 hrs) was “Off white” and the “Moisture content by KF (%)” value (25° C./60% RH, 4 hrs) was 2.33%. For the same molecule, the Description (25° C./60% RH, 8 hrs) was “Off white”, the “Moisture content by KF (%)” value (25° C./60% RH, 8 hrs) was 2.35% and the Description (25° C./60% RH, 12 hrs) was “Off white”. The “Moisture content by KF (%)” value (25° C./60% RH, 12 hrs) was 2.39%, the Description (25° C./60% RH, 24 hrs) was “Off white” and the “Moisture content by KF (%)” value (25° C./60% RH, 24 hrs) was 2.42%. For the same molecule, the Description (25° C./60% RH, 48 hrs) was “Off white”, the “Moisture content by KF (%)” value (25° C./60% RH, 48 hrs) was 2.49% and the Description (25° C./60% RH, Initial) was “Off white”. For the same molecule, the “Moisture content by KF (%)” value (25° C./60% RH, Initial) was 2.19%, the Description (25° C./90% RH, 1 hr) was “Off white” and the “Moisture content by KF (%)” value (25° C./90% RH, 1 hr) was 2.36%. For the same molecule, the Description (25° C./90% RH, 2 hrs) was “Off white”, the “Moisture content by KF (%)” value (25° C./90% RH, 2 hrs) was 2.48% and the Description (25° C./90% RH, 4 hrs) was “Off white”. For the same molecule, the “Moisture content by KF (%)” value (25° C./90% RH, 4 hrs) was 2.52%, the Description (25° C./90% RH, 8 hrs) was “Off white” and the “Moisture content by KF (%)” value (25° C./90% RH, 8 hrs) was 2.69%. The Description (25° C./90% RH, 12 hrs) was “Off white”, the “Moisture content by KF (%)” value (25° C./90% RH, 12 hrs) was 2.87% and the Description (25° C./90% RH, 24 hrs) was “Off white”. The “Moisture content by KF (%)” value (25° C./90% RH, 24 hrs) was 3.17%, the Description (25° C./90% RH, 48 hrs) was “Off white” and the “Moisture content by KF (%)” value (25° C./90% RH, 48 hrs) was 3.48%. For the same molecule, the Description (25° C./90% RH, Initial) was “Off white” and the “Moisture content by KF (%)” value (25° C./90% RH, Initial) was 2.19%.
